According to ChEMBL document CHEMBL2177069, “Novel peptidomimetic compounds containing redox active chalcogens and quinones as potential anticancer agents” (Eur J Med Chem, 2012):

Columns and labels:
Format in all cases: functional
SK-MEL-2 = assay: Cytotoxicity against human SK-MEL-2 cells
MDA-MB-435 = assay: Cytotoxicity against human MDA-MB-435 cells
Malme-3M = assay: Cytotoxicity against human MALME-3M cells
M14 = assay: Cytotoxicity against human M14 cells
U-251 = assay: Cytotoxicity against human U251 cells
LOX IMVI = assay: Cytotoxicity against human LOXIMVI cells
SNB-75 = assay: Cytotoxicity against human SNB75 cells
SF-539 = assay: Cytotoxicity against human SF539 cells
HT-29 = assay: Cytotoxicity against human HT-29 cells
HCT-116 = assay: Cytotoxicity against human HCT116 cells
HCT-15 = assay: Cytotoxicity against human HCT15 cells
HCC 2998 = assay: Cytotoxicity against human HCC2998 cells
COLO 205 = assay: Cytotoxicity against human COLO205 cells
NCI-H522 = assay: Cytotoxicity against human NCI-H522 cells
HOP-92 = assay: Cytotoxicity against human HOP92 cells
NCI-H226 = assay: Cytotoxicity against human NCI-H226 cells
MOLT-4 = assay: Cytotoxicity against human MOLT4 cells
[1] = read-out: pLC50 (the source's name) (converted)

Structure (SMILES): CC1=C(SCCC(=O)OC(C[Se]C2=C(C)C(=O)c3ccccc3C2=O)C(=O)NCCCCCC(=O)OCc2ccccc2)C(=O)c2ccccc2C1=O (stereo unspecified)
- GI50 (SK-MEL-2): 5.5 µM
- LC50 (SK-MEL-2): 52.5 µM
- TGI (SK-MEL-2; read-out: pTGI (converted)): 19.1 µM
- GI50 (MDA-MB-435): 2.14 µM
- LC50 (MDA-MB-435): 49 µM
- TGI (MDA-MB-435; read-out: pTGI (converted)): 12.9 µM
- GI50 (Malme-3M): 2.09 µM
- LC50 (Malme-3M): 56.2 µM
- TGI (Malme-3M; read-out: pTGI (converted)): 6.92 µM
- GI50 (M14): 2 µM
- LC50 (M14): 8.91 µM
- TGI (M14; read-out: pTGI (converted)): 4.27 µM
- GI50 (U-251): 4.07 µM
- LC50 (U-251): 46.8 µM
- TGI (U-251; read-out: pTGI (converted)): 13.5 µM
- GI50 (LOX IMVI): 2.75 µM
- LC50 (LOX IMVI): 69.2 µM
- TGI (LOX IMVI; read-out: pTGI (converted)): 11.5 µM
- GI50 (SNB-75): 11.5 µM
- LC50 (SNB-75): 49 µM
- TGI (SNB-75; read-out: pTGI (converted)): 24 µM
- GI50 (SF-539): 4.47 µM
- LC50 (SF-539): 43.7 µM
- TGI (SF-539; read-out: pTGI (converted)): 15.5 µM
- GI50 (HT-29): 3.55 µM
- LC50 (HT-29): 83.2 µM
- TGI (HT-29; read-out: pTGI (converted)): 20.9 µM
- GI50 (HCT-116): 2 µM
- LC50 (HCT-116): 11.7 µM
- TGI (HCT-116; read-out: pTGI (converted)): 4.57 µM
- GI50 (HCT-15): 6.61 µM
- LC50 (HCT-15): 58.9 µM
- TGI (HCT-15; read-out: pTGI (converted)): 21.4 µM
- GI50 (HCC 2998): 6.46 µM
- LC50 (HCC 2998): 46.8 µM
- TGI (HCC 2998; read-out: pTGI (converted)): 18.6 µM
- GI50 (COLO 205): 7.94 µM
- CC50 (COLO 205; [1]): 56.2 µM
- TGI (COLO 205; read-out: pTGI (converted)): 22.4 µM
- GI50 (NCI-H522): 3.98 µM
- LC50 (NCI-H522): 44.7 µM
- TGI (NCI-H522; read-out: pTGI (converted)): 15.1 µM
- GI50 (HOP-92): 2.69 µM
- LC50 (50% lethal concentration) (HOP-92): 30.9 µM
- TGI (HOP-92; read-out: pTGI (converted)): 7.94 µM
- GI50 (NCI-H226): 19.5 µM
- CC50 (NCI-H226; [1]): > 100 µM
- TGI (NCI-H226; read-out: pTGI (converted)): 51.3 µM
- GI50 (MOLT-4): 4.07 µM
- LC50 (MOLT-4): > 100 µM
- TGI (MOLT-4; read-out: pTGI (converted)): > 100 µM
